Like-named read-outs stand apart in the source and are kept apart here.
Assays:
HIV [1] = conditions: literature, cited from earlier work; for inhibition of HIV / cytopathic effect (in words): in vitro
mannosidase I = conditions: literature; cited from earlier work
HIV [2] = test: In vitro HIV replication / cytopathic effect assay, HIV-infected T-cells scored 0 to 4+ (Example 13, Table I); format: cell-based; parameters: key to T-cells HIV-infected (score): 0: complete CPE; ±: most cells dead; 1+: about 1/4 of cells alive; 2+: about 1/2 of cells alive; 3+: about 3/4 of cells alive; 4+: all cells appear alive; conditions: for HIV inhibition score (inactive, scored as zero): above test protocol (Example 13), concentration not given
Description: (§1) After a suitable period of incubation, the cultures are scored for the presence of so-called syncytial cells (giant cells). Typical examples of such a test for the evaluation of inhibitors of HIV have been disclosed by Fung et al., Bio/Technology 5, 940-946 (1987); Tyms et al., Lancet, Oct. 31, 1987, pp. 1025-1026; Gruters et al., Nature 330, 74-77 (1987); and Walker et al., Proc Natl. Acad. Sci. USA 84, 8120-8124 (1987).
(§2) In the present case, a human leukemic T-cell line was used which is described by Karpas, Leuk. Res. 1, 35-49 (1977). These cells were seeded into microtiter wells at a concentration of 5×10^3 cells per 0.2 ml of culture medium in each well. RPMI-1640 supplemented with 10% fetal calf serum was used as the culture medium. Each of the test compounds was added to either 4 or 6 wells of the microtiter plate. Two or three of the wells were infected with about 10^3 HIV-1 particles per well and two or three other wells were similarly infected with HV-2 particles. During the following 3 weeks, with a twice weekly change of medium containing the corresponding test compounds, the infected cells were monitored for the appearance of syncytial formations (giant cells) and eventual cytopathic effect (CPE). The non-infected cells were monitored for the possible cytotoxic effect of the test compounds. Likewise, the rate of growth was estimated in relation to growth of the control cells. The cultures were scored on a scale from 0 to 4+ by microscopic examination on the following basis:
(§3) 1+=about 1/4 of cells alive
(§4) 2+=about 1/2 of cells alive
(§5) 3+=about 3/4 of cells alive
(§6) 4+=all cells appear alive

[3] = system: human leukemic T-cell line; test: in vitro; format: cell-based; parameters: key to T-cells Control (score): 0: complete CPE; ±: most cells dead; 1+: about 1/4 of cells alive; 2+: about 1/2 of cells alive; 3+: about 3/4 of cells alive; 4+: all cells appear alive; conditions: control cells, 3 weeks
Description: as §1, §2, §3, §4, §5, §6

HIV [4] = test: Anti-HIV activity, CPE reduction in HIV infected T-lymphocytes (Example 14, Table II); format: cell-based; conditions: Human immunodeficiency virus 1, T-lymphocyte; for activity at 100 µg/mL: dosage 0.1 mg/ml; for activity at 130 µg/mL: dosage 0.13 mg/ml
Description: (§7) Further testing of compounds 1 to 12 for inhibition of HIV replication was carried out to confirm the results of Example 13. To discriminate between specific anti-HIV activity and cytotoxicity, the effects of these compounds on HIV infected and non-infected T-lymphocytes were assessed in parallel. Using the T-cell line and cell free suspensions of HIV prepared from infected cultures, as in Example 13, the concentration of infectious particles (TCID, tissue culture infectious dose) was estimated using an end-point titration where the number of infectious HIV particles in each preparation was determined by the highest dilution which contained infectious HIV, as detected by syncytial formation, cytotoxicity and HIV antigen synthesis after 10 days of culture with 10^4 T-45 cells. Stock solutions of all compounds were prepared by dissolving each compound at a concentration of 1 mg/ml in growth medium. These solutions were filtered and sterilised (0.22 μm). Initially, each compound was tested at concentrations of 0.1 mg/ml and 0.5 mg/ml.
(§8) The following Table II sets forth the cytotoxic activity (% cell death) and the anti-HIV activity (% cytopathic effect, CPE, reduction), for these compounds.

[5] = Cytotoxic activity in non-infected T-lymphocytes (Example 14, Table II); format: cell-based; conditions: human, read-out: Cytotoxic Activity (% cell death)
Description: as §7, §8

in vitro = format: cell-based, human; parameters: key to T-cells Control (score): 0: complete CPE; ±: most cells dead; 1+: about 1/4 of cells alive; 2+: about 1/2 of cells alive; 3+: about 3/4 of cells alive; 4+: all cells appear alive; conditions: human, leukemic t-cell line; same test protocol as Table I; read-out: toxic at (concentration)
Description: as §1, §2, §3, §4, §5, §6

α-glycosidase = conditions: literature; cited from earlier work
glycosidase = conditions: literature; cited from earlier work
α-glucosidase I = conditions: literature; cited from earlier work
HIV virons = conditions: literature; cited from earlier work
[6] = compound concentration 0.3 mg/ml
[7] = compound concentration 0.1 mg/ml
[8] = compound concentration 0.13 mg/ml

Structure (SMILES): OC[C@H]1NC[C@@H](O)[C@@H](O)[C@@H]1O [deoxymannojirimycin (DMJ), 1,5-dideoxy-1,5-imino-D-mannitol]
- effect on HIV / virion infectivity (in words) (HIV [1]): absence of effect
- mannosidase I inhibition (in words) (mannosidase I): mannosidase I inhibitor

Structure (SMILES): OC[C@@H]1NC[C@H](O)[C@H]1O [Compound 2, 1,4-Dideoxy-1,4-imino-L-arabinitol]
- T-cells HIV-infected (score) (HIV [2]; compound concentration 0.3 mg/ml, 3 weeks, HIV-1 and HIV-2): 4+
- T-cells Control (score) [3, 6]: 4+
- activity at 100 µg/mL (HIV [4]): 50%
- activity at 500 µg/mL (HIV [4]; dosage 0.5 mg/ml): 100%
- cytotoxicity ([5]; dosage 0.1 mg/ml): 0%
- inhibition of HIV / cytopathic effect (in words) (HIV [1]): strong HIV inhibitory activity

Structure (SMILES): OC[C@@H]1[C@@H](O)[C@@H](O)CN1Cc1ccccc1 [1,4-dideoxy-1,4-benzylimino-D-ribitol, 1,4-Dideoxy-1,4-benzylimino-D-ribitol]
- HIV inhibition score (inactive, scored as zero) (HIV [2]): zero

Structure (SMILES): O[C@@H]1[C@@H](O)[C@@H](O)CN2CC[C@@H](O)[C@@H]12 [L-6-epicastanospermine]
- inhibition of HIV / cytopathic effect (in words) (HIV [1]): neither the epimer L-1,6-diepicastanospermine nor the stereoisomer of castanospermine, L-6-epicastanospermine, were found to be inhibitory

Structure (SMILES): O[C@@H]1[C@@H](O)[C@@H](O)CN2CC[C@H](O)[C@@H]12 [L-1,6-diepicastanospermine]
- inhibition of HIV / cytopathic effect (in words) (HIV [1]): neither the epimer L-1,6-diepicastanospermine nor the stereoisomer of castanospermine, L-6-epicastanospermine, were found to be inhibitory

Structure (SMILES): OC[C@@H](O)[C@@H]1NC[C@@H](O)[C@H]1O [Compound 8, 1,4-Dideoxy-1,4-imino-D-talitol]
- T-cells Control (score) ([3]; compound concentration 0.16 mg/ml): 4+
- activity at 160 µg/mL (HIV [4]; dosage 0.16 mg/ml): 25%
- cytotoxicity ([5]; dosage 0.16 mg/ml): 0%

Structure (SMILES): CN1C[C@H](O)[C@H](O)[C@H]1CO [Compound 6]
- T-cells Control (score) [3, 7]: 4+
- activity at 100 µg/mL (HIV [4]): 25%
- cytotoxicity ([5]; dosage 0.1 mg/ml): 0%

Structure (SMILES): CN1C[C@@H](O)[C@@H](O)[C@H](O)[C@H]1CO [Compound 9, N-Methyl derivative of deoxymannojirimycin]
- T-cells Control (score) [3, 6]: 4+
- activity at 300 µg/mL (HIV [4]; dosage 0.3 mg/ml): 25%
- cytotoxicity ([5]; dosage 0.3 mg/ml): 0%

Structure (SMILES): CN1[C@H](CO)[C@@H](O)[C@H](O)[C@H]1CO [Compound 1, N-Methyl derivative of dihydroxymethyldihydroxypyrrolidine]
- T-cells Control (score) [3, 7]: 4+
- activity at 100 µg/mL (HIV [4]): 25%
- cytotoxicity ([5]; dosage 0.1 mg/ml): 0%

Structure (SMILES): Cc1cn([C@H]2C[C@H](N=[N+]=[N-])[C@@H](CO)O2)c(=O)[nH]c1=O [AZT, 3'-azido-3'-deoxythymidine, reference compound]
- MCC (in vitro): 0.01 µg/mL
- inhibition of HIV / cytopathic effect (in words) (HIV [1]): shown to inhibit replication of the virus in vitro

Structure (SMILES): OC[C@H]1NCC[C@@H](O)[C@@H]1O [fagomine]
- inhibition of HIV / cytopathic effect (in words) (HIV [1]): no HIV inhibition was observed
- α-glycosidase inhibitory activity (in words) (α-glycosidase): α-glycosidase inhibitory activity

Structure (SMILES): OC[C@H]1NC[C@H](O)[C@@H](O)[C@@H]1O [deoxynojirimycin (DNJ), deoxynojirimycin]
- effect on HIV / virion infectivity (in words) (HIV [1]): positive effect
- glycosidase inhibition (in words) (glycosidase): glycosidase inhibitor

Structure (SMILES): OC[C@@H]1NC[C@@H](O)[C@H]1O [Compound 3, 1,4-Dideoxy-1,4-imino-L-ribitol]
- T-cells Control (score) [3, 8]: 4+
- activity at 130 µg/mL (HIV [4]): 25%
- cytotoxicity ([5]; dosage 0.13 mg/ml): 0%

Structure (SMILES): CN1C[C@H](O)[C@@H](O)[C@@H]1CO [Compound 5]
- T-cells Control (score) [3, 7]: 4+
- activity at 100 µg/mL (HIV [4]): 25%
- cytotoxicity ([5]; dosage 0.1 mg/ml): 0%

Structure (SMILES): CN1C[C@H](O)[C@@H](O)[C@H](O)[C@H]1CO [N-methyl derivative of deoxynojirimycin]
- inhibition of HIV / cytopathic effect (in words) (HIV [1]): having activity against HIV
- glucosidase I inhibitory activity (in words) (α-glucosidase I): gluosidase I inhibitory activity

Structure (SMILES): C[C@H]1[C@@H](O)[C@@H](O)[C@H](O)CN1C [Compound 11, 1,5-Dideoxy-1,5-imino-[N-methyl]-L-fucitol]
- T-cells Control (score) [3, 7]: 4+
- activity at 100 µg/mL (HIV [4]): 25%
- cytotoxicity ([5]; dosage 0.1 mg/ml): 0%

Structure (SMILES): COC(=O)CCCCCN1C[C@@H](O)[C@H](O)[C@H](O)[C@@H]1C [Compound 12, 1,5-Dideoxy-1,5-imino-[N-ω-methyl caproate]-L-fucitol]
- T-cells Control (score) ([3]; compound concentration 0.03 mg/ml): 4+
- activity at 100 µg/mL (HIV [4]): 75%
- activity at 250 µg/mL (HIV [4]; dosage 0.25 mg/ml): 90%
- cytotoxicity ([5]; dosage 0.1 mg/ml): 0%

Structure (SMILES): O[C@H]1[C@H](O)[C@@H](O)CN2CC[C@H](O)[C@H]12 [castanospermine]
- inhibition of HIV / cytopathic effect (in words) (HIV [1]): inhibition of the cytopathic effect (CPE)
- effect on HIV / virion infectivity (in words) (HIV [1]): only a modest reduction in virion infectivity
- glucosidase I inhibitory activity (in words) (α-glucosidase I): α-glucosidase I inhibitor
- effect on glycosylation of HIV virons and entry into target cells (in words) (HIV virons): interfere with normal glycosylation of HIV virons, thereby altering the envelope glycoprotein and preventing entry of HIV into target cells

Structure (SMILES): OC[C@H]1NC[C@H](O)[C@@H]1O [Compound 4, 1,4-Dideoxy-1,4-imino-D-ribitol]
- T-cells Control (score) [3, 8]: 4+
- activity at 130 µg/mL (HIV [4]): 50%
- cytotoxicity ([5]; dosage 0.13 mg/ml): 0%

Structure (SMILES): OC[C@@H]1[C@@H](O)[C@H](O)[C@@H](O)CN1Cc1ccccc1 [N-benzyl derivative]
- inhibition of HIV / cytopathic effect (in words) (HIV [1]): Neither the azofuranose analog of glucose nor the N-benzyl derivative were found to have an effect on CPE

Structure (SMILES): OC[C@H]1NC[C@@H](O)[C@@H]1O [D-enantiomer]
- inhibition of HIV / cytopathic effect (in words) (HIV [1]): very little effect on HIV replication

Structure (SMILES): OC[C@H]1[C@H](O)[C@H](O)CN1Cc1ccccc1 [Compound 7, 1,4-dideoxy-1,4-benzylimino-L-ribitol]
- T-cells Control (score) [3, 7]: 4+
- activity at 100 µg/mL (HIV [4]): 25%
- cytotoxicity ([5]; dosage 0.1 mg/ml): 0%

Structure (SMILES): C[C@@H]1NC[C@@H](O)[C@H](O)[C@@H]1O [1,5-dideoxy-1,5-imino-L-fucitol, 1,5-Dideoxy-1,5-imino-L-fucitol]
- HIV inhibition score (inactive, scored as zero) (HIV [2]): zero

Structure (SMILES): C[C@@H]1NC(=O)[C@@H](O)[C@H](O)[C@@H]1O [Compound 10, 1,5-dideoxy-1,5-imino-L-fuconolactam]
- T-cells Control (score) [3, 7]: 4+
- activity at 100 µg/mL (HIV [4]): 50%
- cytotoxicity ([5]; dosage 0.1 mg/ml): 25%

Source: patent US5089520A, “Method of inhibiting virus” (priority 1990, dated 1992)
